Assay: Stability of Compound (1) in nonionic surfactant solution (content retention rate, liquid chromatography)
Type: physicochemical
Details: aqueous solution in glass ampoule stored at 25° C. for 1 month (1M)
Experimental: As used herein, the term “stability” refers to the degree to which the content of (E)-2-(7-trifluoromethylchroman-4-ylidene)-N-(7-hydroxy-5,6,7,8-tetrahydronaphthalen-1-yl)acetamide, or a pharmaceutically acceptable salt or solvate thereof, dissolved and/or suspended in an aqueous suspension is maintained without being altered by decomposition or the like after storage for a certain period of time. In addition, as used herein, the “stability” is evaluated by the content maintenance ratio, which is the ratio of the content of (E)-2-(7-trifluoromethylchroman-4-ylidene)-N-(7-hydroxy-5,6,7,8-tetrahydronaphthalen-1-yl)acetamide, or a pharmaceutically acceptable salt or solvate thereof, in the aqueous suspension agent stored for a certain period after preparation to the content of (E)-2-(7-trifluoromethylchroman-4-ylidene)-N-(7-hydroxy-5,6,7,8-tetrahydronaphthalen-1-yl)acetamide, or a pharmaceutically acceptable salt or solvate thereof, in the aqueous suspension agent immediately after preparation. Typically, this evaluation is determined by evaluating the content retention rate of (E)-2-(7-trifluoromethylchroman-4-ylidene)-N-(7-hydroxy-5,6,7,8-tetrahydronaphthalen-1-yl)acetamide, or a pharmaceutically acceptable salt or solvate thereof, dissolved in the aqueous suspension agent. […]

Compound: O=C(/C=C1\CCOc2cc(C(F)(F)F)ccc21)Nc1cccc2c1C[C@H](O)CC2 [Compound (1), (E)-2-(7-trifluoromethylchroman-4-ylidene)-N-((7R)-7-hydroxy-5,6,7,8-tetrahydronaphthalen-1-yl)acetamide]
- content retention rate (to display ratio %): 100%

Reference: patent publication US12564553B2, “Suspension containing heterocyclidene acetamide derivative” (SENJU PHARMACEUTICAL CO., LTD., priority 2021, dated 2026)
